Results from patent US4758580A, “Inhibiting growth of tumors with certain substituted phenoxy dimethyl alkanoic acids, esters or salts” (Yamanouchi Pharmaceutical Co., Ltd., priority 1985, dated 1988).
In brackets after ≈: the same amount, converted by molar mass.

Assays:
[1] = system: Ehrlich solid tumor; assay: Anti-tumor test against Ehrlich solid tumor; format: in vivo, ddY/SLC mice
Method: Ehrlich tumor cells, 2×10^6, on Day 7 after intraperitoneal transplantation to ddY/SLC mice were subcutaneously transplanted in the left abdomen of ddY/SLC mice (5 week age, male), 10 each grouped into one. The active component was intraperitoneally or orally administered in a definite dose 24 hours after the transplantation, according to the schedule shown in Table 1 (A), (B) or (C). An effect of inhibiting growth of tumor was compared, by measuring the long diameter and short diameter of the tumor on 14, 20 and 21 Days after the transplantation, calculating the tumor size (mm^2) and determining a tumor growth inhibition rate of the group administered with the active component to the control group according to the following equation:
Growth inhibition rate (%)=(C-T)/C×100
T: means tumor size (mm^2) in the active component-administered group
C: mean tumor size (mm^2) in the control group

[2] = system: Meth A solid tumor; assay: Anti-tumor test against methyl cholanthrene-induced Meth A solid tumor; format: in vivo, Balb/C/SLC mice; conditions: 1-8 Days
Method: Meth A tumor cells, 1.5×10^6, on Day 7 after intraperitoneal transplantation to Balb/C/SLC mice were subcutaneously transplanted to the left abdomen of Balb/C/SLC mice (5 week age, male) of 8 mice each being grouped in one (16 mice for the control group). The active component was orally administered in a definite dose 24 hours after the transplantation according to the schedule shown in Table 3. An effect of tumor growth inhibition was compared by measuring the long diameter and short diameter of the tumor on Days 15 and 21 after the transplantation, calculating the tumor size (mm^2) and determining a tumor growth inhibition rate of the active component-administered group to the control group.

[3] = system: liver cancer (MH-134) cells; assay: Inhibition of spontaneous metastasis (to the lymph node) of liver cancer (MH-134) cells in mice; format: in vivo, C3 H/He/SLC mice; conditions: 20th day
Method: (a) Inhibition of spontaneous metastasis (to the lymph node) of liver cancer (MH-134) cells in mice
MH-134 tumor cells, 1×10^6, on Day 7 after intraperitoneal transplantation to C3 H/He/SLC mice were transplanted to the right leg. On the 11th day after the transplantation, the right leg portion wherein the cancer cells were transplanted were cut off. The test compounds were administered orally in a definite dose 24 hours after the transplantation. In order to confirm metastasis-inhibiting effect, on 20th day of the transplantation the mice were anatomised to observe the metastasis to the lymph node in the inguinal portion. [formula] Further, the weight of the lymph node metastasis tumor in the inguinal portion of anatomised mice was measured. [formula]

[4] = system: L-1210; assay: In vitro cytotoxicity against mouse tumor cells, L-1210; format: cell-based; conditions: L1210, 72 h, L-1210, 3 days, 37° C., trypan blue, read-out: IC50
Method: (§1) A suspension of cells in a culture medium was transferred into wells in a microplate in an amount of 1×10^5 cells/wall. Test sample diluted with a culture medium was added to the suspension in each well, and the mixture was incubated on the medium at 37° C. for 3 days in atmosphere of air containing 5% carbon dioxide. Thereafter, the incubated cells were recovered from the microplate and the number of live cells was counted by the dye exclusion test using a 0.5% solution of trypan blue and by using a hemocytomer.

[5] = system: Ehrlich (carcinoma); assay: In vitro cytotoxicity against mouse tumor cells, Ehrlich; format: cell-based; conditions: 72 h, Ehrlich (carcinoma), 3 days, 37° C., trypan blue, read-out: IC50
Method: as §1

[6] = system: MH 134 (liver cancer); assay: In vitro cytotoxicity against mouse tumor cells, MH 134; format: cell-based; conditions: 72 h, MH 134, 3 days, 37° C., trypan blue, read-out: IC50
Method: as §1

[7] = system: Bowes (melanoma); assay: In vitro cytotoxicity against human tumor cells, Bowes; format: cell-based; conditions: 72 h, Bowes, 3 days, 37° C., crystalviolet, read-out: IC50
Method: (§2) A suspension of cells in a culture medium was transferred into wells in a microplate in an amount of 5×10^4 cells/well. Test sample diluted with a culture medium was added to the suspension in each well, and the mixture was incubated at 37° C. for 3 days in an atmosphere of air containing 5% carbon dioxide. After skimming, sticking cells were dyed which crystalviolet for 10 minutes. After washing with water, 1% sodium lauryl sulfate solution was added to each well, and the absrobancy (optical density) at […] was measured. "% inhibition" was calculated from the following equation. [formula]

[8] = system: ACHN (kidney cancer); assay: In vitro cytotoxicity against human tumor cells, ACHN; format: cell-based; conditions: 72 h, 3 days, 37° C., crystalviolet, read-out: IC50
Method: as §2

[9] = Toxicity test (acute, oral); conditions: mouse, in vivo, ddY mice, male
Method: The active component was orally administered to ddY mice (mean body weight of 35 g, male). No example of death was noted up to the dose of 5,000 mg/kg. Accordingly, the acute toxicity of Compound B is greater than 5,000 mg/kg. (Effects)

[10] = Day 14, 60 mg/kg i.p., Days 1, 2, 3, 4, 7, 8, 10 & 13
[11] = Day 14, 100 mg/kg i.p., Days 1, 3, 7, 10, 13 & 14
[12] = Day 14, 200 mg/kg p.o., Days 1, 2, 3, 4, 7, 8, 10 & 13
[13] = Day 21, 60 mg/kg i.p., Days 1, 2, 3, 4, 7, 8, 10 & 13
[14] = Day 21, 100 mg/kg i.p., Days 1, 3, 7, 10, 13 & 14
[15] = Day 21, 200 mg/kg p.o., Days 1, 2, 3, 4, 7, 8, 10 & 13
[16] = 100 mg/kg oral, 1, 3, 5, 7, 9, 11, 13 and 15 days
[17] = 200 mg/kg oral, 1, 3, 5, 7, 9, 11, 13 and 15 days
[18] = 400 mg/kg oral, 1, 3, 5, 7, 9, 11, 13 and 15 days

## CCOC(=O)C(C)(C)CCCCOc1ccc(OCCCCCn2ccnc2)cc1 [Compound B]
[1]; [10]
  Growth Inhibition Rate: 25.7%
  Size of Tumor: 107.3 ± 54.6 mm^2
[1]; [11]
  Growth Inhibition Rate: 51.4%
  Size of Tumor: 70.1 ± 33.8 mm^2
[1]; [12]
  Growth Inhibition Rate: 66.3%
  Size of Tumor: 48.7 ± 44.3 mm^2
[1]; [13]
  Growth Inhibition Rate: 37.0%
  Size of Tumor: 323.3 ± 163.4 mm^2
[1]; [14]
  Growth Inhibition Rate: 38.5%
  Size of Tumor: 315.3 ± 235.3 mm^2
[1]; [15]
  Growth Inhibition Rate: 78.7%
  Size of Tumor: 109.2 ± 133.5 mm^2
[2]; Day 15, 100 mg/kg p.o.
  Growth Inhibition Rate: 27.5%
  Size of Tumor: 163.0 ± 41.9 mm^2
[2]; Day 15, 200 mg/kg p.o.
  Growth Inhibition Rate: 46.4%
  Size of Tumor: 124.5 ± 60.2 mm^2
[2]; Day 15, 400 mg/kg p.o.
  Growth Inhibition Rate: 53.6%
  Size of Tumor: 104.4 ± 56.9 mm^2
[2]; Day 21, 100 mg/kg p.o.
  Growth Inhibition Rate: 18.8%
  Size of Tumor: 387.9 ± 101.8 mm^2
[2]; Day 21, 200 mg/kg p.o.
  Growth Inhibition Rate: 39.2%
  Size of Tumor: 290.8 ± 100.9 mm^2
[2]; Day 21, 400 mg/kg p.o.
  Growth Inhibition Rate: 41.6%
  Size of Tumor: 279.3 ± 152.1 mm^2
[3]; [16]
  Growth inhibition of the metastasis tumor: 33.8%
  Metastasis-inhibition rate: 8.5%
[3]; [17]
  Growth inhibition of the metastasis tumor: 79.4%
  Metastasis-inhibition rate: 41.2%
[3]; [18]
  Growth inhibition of the metastasis tumor: 80.4%
  Metastasis-inhibition rate: 73.9%
[4]
  IC50: 1.9 µg/mL (≈ 4.56 µM)
[5]
  IC50: 0.5 µg/mL (≈ 1.2 µM)
[6]
  IC50: 2.2 µg/mL (≈ 5.28 µM)
[7]
  IC50: 1 µg/mL (≈ 2.4 µM)
[8]
  IC50: 2.3 µg/mL (≈ 5.52 µM)
[9]
  LD50: > 5000 mg/kg
